Measurements taken from patent publication US20250186439A1, “PYK2 INHIBITION MODULATES IMMUNE CELL FUNCTION” (The Children's Medical Center Corporation, priority 2022, published 2025).
Entries after “also recorded” stand apart in the source; their conditions may differ.

Legend:
MG6 cells [1] = test: MG6 microglia viability, morphology and proliferation (Cell Counting Kit-8); assay type: cell-based, mouse; conditions: for MG6 cell proliferation: 24 h after CSF-1, listed as Pyk2 inhibitor
Method: (§1) FIGS. 4A-4E. Induction of multinucleated cells by a Pyk2 inhibitor. FIG. 4A: Microscopic images depicting the effect of a Pyk2 inhibitor on the morphology of MG6 cells. MG6 cell line is established with neonatal C57BL/6 mouse microglia that are collected from whole brain and transformed with c-myc oncogene. MG6 cells were stimulated with 100 ng/mL CSF-1 for 48 hours and then cultured for 24 hours with various concentrations of Pyk2 inhibitor: 0 nM, 100 nM, 500 nM and 1000 nM. FIG. 4B: Quantification of the effect of a Pyk2 inhibitor on the proliferation of MG6 cells. MG6 cells were stimulated with CSF-1 and cultured with various concentrations of Pyk2 inhibitor as in FIG. 4A. The baseline proliferation rate is defined as 100 ng/mL CSF-1 treatment for 48 hours. Proliferation of MG6 cells with various concertation of Pyk2 inhibitor treatment is measured using a Cell Counter Kit for 4 hours of incubation. No difference in MG6 cell proliferation is observed at the Pyk2 inhibitor concentration of 100 nM. […] FIG. 4C: Microscopic images depicting multinucleated MG6 cells with 24 hours of 1000 nM Pyk2 inhibitor treatment following 48 hours of 100 ng/mL CSF-1 treatment. […] Multinucleated cells with two or more nuclei are observed as marked with circles in the bottom image. FIG. 4D: Quantification of the proportion of multinucleated cells after 0 nM, 500 nM, and 1000 nM Pyk2 inhibitor treatment. MG6 cells were treated with Pyk2 inhibitor for 24 hours after 48 hours of 100 ng/mL CSF-1 treatment. […] FIG. 4E: Immunohistochemical staining depicting multinucleation of Pyk2 inhibitor treated microglia. […]
(§2) To further assess the function of Pyk2 during neurodegenerative disorders, such as AD, the effect of Pyk2 inhibition was assessed in a microglial cell line. […]
Upon treatment with up to 1000 nM Pyk2 inhibitor, MG6 viability and morphology appeared to be unaffected (FIG. 4A). To assess if Pyk2 inhibition negatively affected proliferation of MG6 cells, treated and untreated cells were quantified using a Cell Counting Kit-8 (Dojindo, Japan CK104) after 4 hours of incubation.

MG6 cells [2] = test: Multinucleation of MG6 microglia (DAPI, Iba1 staining); assay type: cell-based, mouse
Method: as §1, with “microglia. MG6 cells were stained with anti-Tubulin and anti-Iba1, while nuclei were stained with DAPI. Cells were observed via confocal microscopy (×600). MG6 cells were treated without Pyk2 inhibitor (left) or with 1000 nM Pyk2 inhibitor (right) after 48 hours of 100 ng/mL CSF-1 treatment. Scale bar is 20 μm.” for “microglia.”
as §2

MG6 cells [3] = test: Proliferation of FACS-sorted mono-/multinuclear MG6 cells; assay type: cell-based, mouse; conditions: 1000 nM, 24 h pretreatment
Method: FIGS. 7A-7D. Pyk2 inhibition promotes the phagocytotic activity and inflammatory responses in microglia. FIG. 7A: Quantification of the effect of Pyk2 inhibitor treatment on proliferation of mononucleated and multinucleated MG6 cells. MG6 cells were pretreated with 1000 nM Pyk2 inhibitor for 24 hours and mono-/multi-nuclear cells were isolated and collected by fluorescent activated cell sorting. […] There is no difference in proliferation of mononuclear cells after Pyk2 inhibitor treatment compared to untreated control cells. FIG. 7B: Fluorescent imaging depicting the effect of Pyk2 inhibitor on phagocytosis of mononucleated and multinucleated MG6 cells. […] FIG. 7C: Quantification of phagocytosis of mononucleated and multinucleated MG6 cells over time. […] Fluorescence intensity was measured by fluorescence microplate reader at excitation/emission wavelengths of 560/580 nm. […] FIG. 7D: Quantification of the effect of Pyk2 inhibitor treatment on cytokine/chemokine levels of mononucleated and multinucleated MG6 cells. The relative mRNA levels of IL-6, IL-1β, IL-10, and TGF-β were measured by a real-time PCR (qPCR). Measured mRNA transcript levels are reported as the mean level±standard deviation (n=3; *: p-value<0.05; **: p-value <0.01; ***: p-value <0.005; ****: p-value <0.001; and *****: p-value <0.0005). […]

[4] = system: IL-6, IL-1β, IL-10, and TGF-β mRNA; test: Cytokine/chemokine mRNA levels (qPCR) in sorted MG6 cells; assay type: cell-based, mouse; conditions: qPCR after inhibitor treatment
Method: FIGS. 7A-7D. Pyk2 inhibition promotes the phagocytotic activity and inflammatory responses in microglia. FIG. 7A: Quantification of the effect of Pyk2 inhibitor treatment on proliferation of mononucleated and multinucleated MG6 cells. MG6 cells were pretreated with 1000 nM Pyk2 inhibitor for 24 hours and mono-/multi-nuclear cells were isolated and collected by fluorescent activated cell sorting. […] There is no difference in proliferation of mononuclear cells after Pyk2 inhibitor treatment compared to untreated control cells. FIG. 7B: Fluorescent imaging depicting the effect of Pyk2 inhibitor on phagocytosis of mononucleated and multinucleated MG6 cells. MG6 cells were pretreated with 1000 nM Pyk2 inhibitor for 24 hours and mono-/multi-nuclear cells were isolated and collected by fluorescent activated cell sorting. After sorting, cells were treated with pHrodo Red E. coli BioParticles. Representative images are shown at ×20 magnification level. FIG. 7C: Quantification of phagocytosis of mononucleated and multinucleated MG6 cells over time. After Pyk2 inhibitor treatment and cell sorting, MG6 cells were treated with pHrodo Red E. coli BioParticles for the indicated time. Fluorescence intensity was measured by fluorescence microplate reader at excitation/emission wavelengths of 560/580 nm. […] FIG. 7D: Quantification of the effect of Pyk2 inhibitor treatment on cytokine/chemokine levels of mononucleated and multinucleated MG6 cells. The relative mRNA levels of IL-6, IL-1β, IL-10, and TGF-β were measured by a real-time PCR (qPCR). Measured mRNA transcript levels are reported as the mean level±standard deviation (n=3; *: p-value<0.05; **: p-value <0.01; ***: p-value <0.005; ****: p-value <0.001; and *****: p-value <0.0005).
Next, the differences in the activity of mononucleated and multinucleated microglial cells in response to Pyk2 inhibition was further assessed. […] Mononucleated and multinucleated MG6 cells also differed regarding the cytokines and chemokines produced by each (FIG. 7D).

microglia = test: β-amyloid (Aβ42) brain infusion assay, microglia response in vivo; design: species or system mouse; conditions: intracerebroventricular infusion before Aβ42 infusion
From the text: FIGS. 9A-9B. FIG. 9A. Aβ brain infusion assay system. Using osmotic pump implanted to mice, an experimental system using intracerebroventricular injection was established to validate the morphological and molecular changes of microglia in response to Aβ42 in vivo. FIG. 9B. Activated microglia in the vicinity of amyloid plaques. Pyk2 inhibitor was infused into Iba1-EGFP transgenic mouse brain for 3 days and then Hylite-555 labelled-AP42 was infused into the brain using osmotic pump for the next 3 days. A 20 μm scale bar is in the bottom-left corner.
To test the morphological and molecular changes of microglia in response to Aβ42 in vivo a β-amyloid brain infusion assay was performed. An in vivo experimental system for […] was established with brain infusion pump inserted to left cerebral ventricle and treated Pyk2 inhibitor for 24 hours before Aβ42 infusion (FIG. 9A).

For CN(c1ccccc1CNc1nc(Nc2ccc3c(c2)CC(=O)N3)ncc1C(F)(F)F)S(C)(=O)=O [PF-431396], the MG6 cell proliferation (MG6 cells [1]; 100 nM (up to 100 nM)) was “No significant change; also recorded: No difference”, the MG6 cell proliferation (MG6 cells [1]; 500 nM or 1000 nM) was “slight reduction; also recorded: slightly decreased” and the “MG6 viability and morphology” value (MG6 cells [1]; up to 1000 nM, 24 h after 48 h 100 ng/mL CSF-1) was “unaffected”. For the same compound, the “multinucleation of MG6 cells” value (MG6 cells [2]; 500 nM, 24 h after 48 h CSF-1) was “insufficient to induce multinucleation”, the “level of Iba1 in cytoplasm of multinucleated MG6 cells” value (MG6 cells [2]; 1000 nM) was “increased level” and the “multinucleation of MG6 cells / proportion of multinucleated cells” value (MG6 cells [2]; 1000 nM, 24 h after 48 h CSF-1, listed as Pyk2 inhibitor) was “multinucleation of MG6 cells was observed; also recorded: significantly increased”. For the same compound, the “proliferation of sorted mononucleated MG6 cells vs untreated” value (MG6 cells [3]) was “no difference”, the “proliferation of sorted multinucleated MG6 cells” value (MG6 cells [3]; listed as Pyk2 inhibitor) was “slightly increased; also recorded: increased level” and the “IL-1β expression, mononucleated MG6 cells” value [4] was “increased expression”. For the same compound, the “IL-1β expression, multinucleated MG6 cells” value [4] was “did not”, the “IL-6 expression, mononucleated MG6 cells” value [4] was “increased expression” and the “IL-6 expression, multinucleated MG6 cells” value [4] was “did not”. The “IL-10, mononucleated MG6 cells” value [4] was “reduction”, the “IL-10, multinucleated MG6 cells” value [4] was “reduction” and the “TGF-β expression, multinucleated MG6 cells” value [4] was “increase”. The “expression of MHC class II molecules (e.g., H2-D1 and H2-K1) in microglia” value (microglia) was “increased expression”, the “phagocytic activity near amyloid plaques” value (microglia) was “enhanced” and the “proportion of activated microglia” value (microglia; listed as Pyk2 inhibitor) was “a significant proportion of microglia were activated; also recorded: significantly larger proportion”.
